Columns and labels:
[1] = test system: patients with relapsed/refractory multiple myeloma (RR–MM); assay: Phase 1 dose-escalation trial of oral NMP: safety, adverse events (CTCAE 4.03), DLT, MTD; format: in vivo
Protocol: This was a phase 1, open-label dose-escalation trial of orally administered NMP in patients with relapsed/refractory multiple myeloma (RR–MM). Eligible patients were ≥ 18 years old with Eastern Cooperative Oncology Group (ECOG) < 2 and histologically confirmed plasma cell myeloma defined by WHO 2008 criteria with measurable disease (defined by serum M-protein > 5 g/L, urine M-protein > 200 mg/24 h, involved serum free light chain > 100 mg/L or measurable soft tissue plasmacytoma). Patients were required to have relapsed following prior treatment and/or be refractory to or intolerant of both bortezomib and lenalidomide and must have undergone autologous stem cell transplant (unless deemed ineligible at investigator discretion). Exclusion criteria included: central nervous system involvement, active second malignancy within two years, uncontrolled medical conditions contraindicating an investigational agent due to inadequate organ function and concomitant exposure to anti-myeloma therapies.
The primary study endpoint was to determine the MTD of orally administered NMP in patients with RR–MM. Secondary endpoints included safety, PK analyses, IMWG defined response rate and exploratory immunological biomarkers. Adverse events were defined according to Common Terminology Criteria for Adverse Events (CTCAE version 4.03). Haematological DLTs were defined as grade 4 neutropenia unresponsive to G-CSF, grade 4 thrombocytopenia and febrile neutropenia. Non-haematological DLTs were grade 3 or higher and considered probably related to study drug and not attributable to disease progression and those resulting treatment delays greater than two weeks due to drug-related toxicity. Self-limited (< 24 h) gastrointestinal side effects (e.g. nausea, diarrhoea) responding to supportive measures were not classified as DLTs.
Pharmaceutical grade NMP stock solution (Ashland, Columbus, OH, USA) was diluted in ORA SWEET® SF (Medical Flavouring Systems, Vic, Australia) oral syrup vehicle and sterile water to a final concentration of 50 mg/mL and dispensed weekly in amber glass bottles for storage a room temperature. NMP was administered as a single morning dose on an empty stomach at least 30 min prior to food. Patients were dosed according to an ‘accelerated’ escalation schedule (one patient per dose level) in the absence of significant toxicity until a DLT was experienced and then in a 3 × 3 ‘standard’ dose-escalation phase. Intra-patient dose escalation at 100 mg increments was also permitted whereby the MTD had not been determined and the patient tolerated two consecutive cycles without DLT or an objective disease response. Treatment was administered daily for 28-day cycles until withdrawal from protocol due to toxicity or disease progression.

BET-bromodomains = test system: BET-bromodomains; set-up: method as in PMID 26047594, PMID 24813887; details: suppression of LPS-induced TNFα-secretion, downregulation of cMYC expression; cited from earlier work

CN1CCCC1=O [NMP, N-methyl-2-pyrrolidone]
grade 5 AEs ([1]; 13 patients): no grade 5 AEs
Anaemia: Total ([1]; human, in vivo): 23%
Anaemia: Total (patients) ([1]; human, in vivo): 3
Anaemia: worst grade 1 (patients) ([1]; human, in vivo): 0
Anaemia: worst grade 2 (patients) ([1]; human, in vivo): 1
Anaemia: worst grade 3 (patients) ([1]; human, in vivo): 2
Anaemia: worst grade 4 (patients) ([1]; human, in vivo): 0
Anorexia: Total ([1]; human, in vivo): 23%
Anorexia: Total (patients) ([1]; human, in vivo): 3
Anorexia: worst grade 1 (patients) ([1]; human, in vivo): 0
Anorexia: worst grade 2 (patients) ([1]; human, in vivo): 3
Anorexia: worst grade 3 (patients) ([1]; human, in vivo): 0
Anorexia: worst grade 4 (patients) ([1]; human, in vivo): 0
Constipation: Total ([1]; human, in vivo): 15%
Constipation: Total (patients) ([1]; human, in vivo): 2
Constipation: worst grade 1 (patients) ([1]; human, in vivo): 1
Constipation: worst grade 2 (patients) ([1]; human, in vivo): 1
Constipation: worst grade 3 (patients) ([1]; human, in vivo): 0
Constipation: worst grade 4 (patients) ([1]; human, in vivo): 0
Diarrhoea: Total ([1]; human, in vivo): 23%
Diarrhoea: Total (patients) ([1]; human, in vivo): 3
Diarrhoea: worst grade 1 (patients) ([1]; human, in vivo): 2
Diarrhoea: worst grade 2 (patients) ([1]; human, in vivo): 0
Diarrhoea: worst grade 3 (patients) ([1]; human, in vivo): 1
Diarrhoea: worst grade 4 (patients) ([1]; human, in vivo): 0
Dizziness: Total ([1]; human, in vivo): 23%
Dizziness: Total (patients) ([1]; human, in vivo): 3
Dizziness: worst grade 1 (patients) ([1]; human, in vivo): 2
Dizziness: worst grade 2 (patients) ([1]; human, in vivo): 1
Dizziness: worst grade 3 (patients) ([1]; human, in vivo): 0
Dizziness: worst grade 4 (patients) ([1]; human, in vivo): 0
Dysgeusia: Total ([1]; human, in vivo): 15%
Dysgeusia: Total (patients) ([1]; human, in vivo): 2
Dysgeusia: worst grade 1 (patients) ([1]; human, in vivo): 2
Dysgeusia: worst grade 2 (patients) ([1]; human, in vivo): 0
Dysgeusia: worst grade 3 (patients) ([1]; human, in vivo): 0
Dysgeusia: worst grade 4 (patients) ([1]; human, in vivo): 0
Fatigue: Total ([1]; human, in vivo): 23%
Fatigue: Total (patients) ([1]; human, in vivo): 3
Fatigue: worst grade 1 (patients) ([1]; human, in vivo): 3
Fatigue: worst grade 2 (patients) ([1]; human, in vivo): 0
Fatigue: worst grade 3 (patients) ([1]; human, in vivo): 0
Fatigue: worst grade 4 (patients) ([1]; human, in vivo): 0
Fever: Total ([1]; human, in vivo): 15%
Fever: Total (patients) ([1]; human, in vivo): 2
Fever: worst grade 1 (patients) ([1]; human, in vivo): 0
Fever: worst grade 2 (patients) ([1]; human, in vivo): 0
Fever: worst grade 3 (patients) ([1]; human, in vivo): 1
Fever: worst grade 4 (patients) ([1]; human, in vivo): 1
Grade 3–4 adverse events, patients ([1]; human, in vivo): 54%
Musculoskeletal pain: Total ([1]; human, in vivo): 38%
Musculoskeletal pain: Total (patients) ([1]; human, in vivo): 5
Musculoskeletal pain: worst grade 1 (patients) ([1]; human, in vivo): 2
Musculoskeletal pain: worst grade 2 (patients) ([1]; human, in vivo): 3
Musculoskeletal pain: worst grade 3 (patients) ([1]; human, in vivo): 0
Musculoskeletal pain: worst grade 4 (patients) ([1]; human, in vivo): 0
Nausea: Total ([1]; human, in vivo): 54%
Nausea: Total (patients) ([1]; human, in vivo): 7
Nausea: worst grade 1 (patients) ([1]; human, in vivo): 1
Nausea: worst grade 2 (patients) ([1]; human, in vivo): 6
Nausea: worst grade 3 (patients) ([1]; human, in vivo): 0
Nausea: worst grade 4 (patients) ([1]; human, in vivo): 0
Neutrophil count decreased: Total (patients) ([1]; human, in vivo): 3
Neutrophil count decreased: worst grade 1 (patients) ([1]; human, in vivo): 0
Neutrophil count decreased: worst grade 2 (patients) ([1]; human, in vivo): 1
Neutrophil count decreased: worst grade 3 (patients) ([1]; human, in vivo): 2
Neutrophil count decreased: worst grade 4 (patients) ([1]; human, in vivo): 0
Overall adverse events: Total ([1]; human, in vivo): 100%
Overall adverse events: Total (patients) ([1]; human, in vivo): 13
Overall adverse events: worst grade 1 (patients) ([1]; human, in vivo): 1
Overall adverse events: worst grade 2 (patients) ([1]; human, in vivo): 5
Overall adverse events: worst grade 3 (patients) ([1]; human, in vivo): 6
Overall adverse events: worst grade 4 (patients) ([1]; human, in vivo): 1
Peripheral sensory neuropathy: Total ([1]; human, in vivo): 23%
Peripheral sensory neuropathy: Total (patients) ([1]; human, in vivo): 3
Peripheral sensory neuropathy: worst grade 1 (patients) ([1]; human, in vivo): 0
Peripheral sensory neuropathy: worst grade 2 (patients) ([1]; human, in vivo): 3
Peripheral sensory neuropathy: worst grade 3 (patients) ([1]; human, in vivo): 0
Peripheral sensory neuropathy: worst grade 4 (patients) ([1]; human, in vivo): 0
Pruritus: Total ([1]; human, in vivo): 15%
Pruritus: Total (patients) ([1]; human, in vivo): 2
Pruritus: worst grade 1 (patients) ([1]; human, in vivo): 2
Pruritus: worst grade 2 (patients) ([1]; human, in vivo): 0
Pruritus: worst grade 3 (patients) ([1]; human, in vivo): 0
Pruritus: worst grade 4 (patients) ([1]; human, in vivo): 0
Renal dysfunction: Total ([1]; human, in vivo): 15%
Renal dysfunction: Total (patients) ([1]; human, in vivo): 2
Renal dysfunction: worst grade 1 (patients) ([1]; human, in vivo): 0
Renal dysfunction: worst grade 2 (patients) ([1]; human, in vivo): 0
Renal dysfunction: worst grade 3 (patients) ([1]; human, in vivo): 2
Renal dysfunction: worst grade 4 (patients) ([1]; human, in vivo): 0
Sore throat: Total ([1]; human, in vivo): 15%
Sore throat: Total (patients) ([1]; human, in vivo): 2
Sore throat: worst grade 1 (patients) ([1]; human, in vivo): 2
Sore throat: worst grade 2 (patients) ([1]; human, in vivo): 0
Sore throat: worst grade 3 (patients) ([1]; human, in vivo): 0
Sore throat: worst grade 4 (patients) ([1]; human, in vivo): 0
URTI: Total ([1]; human, in vivo): 15%
URTI: Total (patients) ([1]; human, in vivo): 2
URTI: worst grade 1 (patients) ([1]; human, in vivo): 0
URTI: worst grade 2 (patients) ([1]; human, in vivo): 2
URTI: worst grade 3 (patients) ([1]; human, in vivo): 0
URTI: worst grade 4 (patients) ([1]; human, in vivo): 0
overall DLT rate ([1]; human, in vivo): 8%
maximum tolerated dose (MTD) ([1]; human, in vivo, po): not defined
dose limiting toxicity (DLT) event ([1]; in vivo): diarrhoea
concentration at which NMP phenocopies effects of BET-inhibitors (BET-bromodomains): 1 to 10 mM
